The target in one assay is LYN B (Homo sapiens, UniProt P07948). The experiment in a line: Z'-LYTE SelectScreen biochemical kinase assay LYN B. A digest of the protocol:
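FRET-peptide Z′-LYTE format: 0.85–14.8 ng LYN B with 2 µM Tyr 02 peptide and ATP at apparent Km, in HEPES pH 7.5 buffer with 10 mM MgCl2, 1% DMSO final. Kinase reaction 60 min at room temperature, then 60 min protease development; coumarin/fluorescein emission ratio, 10-point 3-fold titrations fitted sigmoidally.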

For a further assay, the target named is RPS6KB1 (p70S6K) (Homo sapiens, UniProt P23443). Kind of assay: Z'-LYTE SelectScreen biochemical kinase assay RPS6KB1 (p70S6K). The essentials: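 Ten-point, 3-fold compound titrations (1% DMSO final) were run against 2.87-17.7 ng kinase, 2 μM Ser/Thr 07 peptide and ATP at apparent Km in HEPES pH 7.5 buffer, 1 h at room temperature, then 1 h protease development. Coumarin/fluorescein ratio (445/520 nm, excitation 400 nm) gave phosphorylation; curves fitted sigmoidally.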

Another assay has as its target PDGFRA (PDGFR alpha) (Homo sapiens, UniProt P16234). The experiment in a line: Z'-LYTE SelectScreen biochemical kinase assay PDGFRA (PDGFR alpha). A digest of the protocol:
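Z′-LYTE FRET-peptide cleavage assay: 1.54-22.6 ng PDGFRA with 2 μM Tyr 04 in HEPES pH 7.5 buffer with MgCl2/MnCl2, ATP at apparent Km, 1% DMSO, 60 min at room temperature. Coumarin/fluorescein emission ratio after development; 10-point 3-fold titrations fitted sigmoidally.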

The target in the next assay is FGFR2 (Homo sapiens, UniProt P21802). The experiment in a line: Z'-LYTE SelectScreen biochemical kinase assay FGFR2. A digest of the protocol: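 FRET peptide cleavage (Z′-LYTE) read-out: 10 μL reaction of 0.19-1.99 ng FGFR2 with 2 μM Tyr 04 peptide in HEPES pH 7.5, MgCl2, 2 mM MnCl2, DTT, 1% DMSO; ATP at apparent Km. 60 min at room temperature, then 60 min development. Coumarin/fluorescein emission ratio; 10-point 3-fold titrations fitted sigmoidally.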

[1] abbreviates: 10 μmolar compound concentration, ATP at Km app, read-out: LYN B inhibition.
[2] abbreviates: read-out: % Inhibition mean LYN B.
Where [3] appears, read: 10 μmolar compound concentration, ATP at Km app, read-out: RPS6KB1 (p70S6K) inhibition.
Where [4] appears, read: read-out: % Inhibition mean RPS6KB1 (p70S6K).
[5] abbreviates: 10 μmolar compound concentration, ATP at Km app, read-out: PDGFRA (PDGFR alpha) inhibition.
Setting [6] is: read-out: % Inhibition mean PDGFRA (PDGFR alpha).
Setting [7] is: 10 μmolar compound concentration, ATP at Km app, read-out: FGFR2 inhibition.
Where [8] appears, read: read-out: % Inhibition mean FGFR2.

Experimental findings from patent publication US11339161B2, “Triazolo pyridines as modulators of gamma-secretase” (Boehringer Ingelheim International GmbH, priority 2017, dated 2022) are described below.

The structures appear in SMILES notation. Read-outs that look alike come from different tables or passages of the source.

PDGFRA (PDGFR alpha), sequence (P16234 24-1089): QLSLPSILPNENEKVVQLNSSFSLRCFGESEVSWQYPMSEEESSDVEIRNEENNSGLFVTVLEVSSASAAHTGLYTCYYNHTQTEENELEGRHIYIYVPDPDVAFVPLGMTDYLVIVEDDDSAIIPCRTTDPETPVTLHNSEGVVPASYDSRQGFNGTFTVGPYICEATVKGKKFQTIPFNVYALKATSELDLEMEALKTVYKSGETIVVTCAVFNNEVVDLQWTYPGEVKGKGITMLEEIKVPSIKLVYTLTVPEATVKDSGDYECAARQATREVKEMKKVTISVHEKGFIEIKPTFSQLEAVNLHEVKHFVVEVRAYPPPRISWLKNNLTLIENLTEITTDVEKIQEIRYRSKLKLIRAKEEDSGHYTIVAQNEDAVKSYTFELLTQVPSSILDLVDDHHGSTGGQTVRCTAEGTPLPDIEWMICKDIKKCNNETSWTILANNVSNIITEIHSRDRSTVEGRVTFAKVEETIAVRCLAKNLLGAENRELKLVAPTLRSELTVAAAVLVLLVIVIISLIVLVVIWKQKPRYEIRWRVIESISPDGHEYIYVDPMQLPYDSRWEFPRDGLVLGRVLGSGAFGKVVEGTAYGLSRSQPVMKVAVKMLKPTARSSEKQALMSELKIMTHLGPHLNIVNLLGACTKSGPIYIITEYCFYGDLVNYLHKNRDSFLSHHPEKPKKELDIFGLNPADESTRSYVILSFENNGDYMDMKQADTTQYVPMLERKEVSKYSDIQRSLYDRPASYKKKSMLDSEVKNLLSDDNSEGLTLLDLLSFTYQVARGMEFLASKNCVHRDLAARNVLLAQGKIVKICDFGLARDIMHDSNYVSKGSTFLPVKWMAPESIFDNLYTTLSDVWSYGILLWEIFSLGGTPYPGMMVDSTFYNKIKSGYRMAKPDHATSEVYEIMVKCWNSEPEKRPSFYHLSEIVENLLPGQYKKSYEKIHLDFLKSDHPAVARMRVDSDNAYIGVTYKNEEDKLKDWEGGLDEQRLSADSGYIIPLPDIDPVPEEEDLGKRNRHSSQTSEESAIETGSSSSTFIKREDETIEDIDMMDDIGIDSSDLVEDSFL
RPS6KB1 (p70S6K), sequence (P23443 whole entry): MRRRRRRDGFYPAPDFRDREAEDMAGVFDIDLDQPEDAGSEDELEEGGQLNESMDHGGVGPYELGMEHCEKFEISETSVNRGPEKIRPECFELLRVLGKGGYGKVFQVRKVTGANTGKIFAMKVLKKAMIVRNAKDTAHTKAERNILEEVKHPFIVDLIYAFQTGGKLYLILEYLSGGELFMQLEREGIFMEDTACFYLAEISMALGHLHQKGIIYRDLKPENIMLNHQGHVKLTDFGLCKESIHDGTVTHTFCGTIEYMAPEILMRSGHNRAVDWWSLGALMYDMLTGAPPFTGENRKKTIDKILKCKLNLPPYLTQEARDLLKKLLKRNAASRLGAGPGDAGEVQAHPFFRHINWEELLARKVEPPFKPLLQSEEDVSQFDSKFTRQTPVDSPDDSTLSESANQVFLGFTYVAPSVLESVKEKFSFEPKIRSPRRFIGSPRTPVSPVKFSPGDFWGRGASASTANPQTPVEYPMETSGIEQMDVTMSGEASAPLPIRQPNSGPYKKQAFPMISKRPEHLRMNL
FGFR2, sequence (P21802 22-821): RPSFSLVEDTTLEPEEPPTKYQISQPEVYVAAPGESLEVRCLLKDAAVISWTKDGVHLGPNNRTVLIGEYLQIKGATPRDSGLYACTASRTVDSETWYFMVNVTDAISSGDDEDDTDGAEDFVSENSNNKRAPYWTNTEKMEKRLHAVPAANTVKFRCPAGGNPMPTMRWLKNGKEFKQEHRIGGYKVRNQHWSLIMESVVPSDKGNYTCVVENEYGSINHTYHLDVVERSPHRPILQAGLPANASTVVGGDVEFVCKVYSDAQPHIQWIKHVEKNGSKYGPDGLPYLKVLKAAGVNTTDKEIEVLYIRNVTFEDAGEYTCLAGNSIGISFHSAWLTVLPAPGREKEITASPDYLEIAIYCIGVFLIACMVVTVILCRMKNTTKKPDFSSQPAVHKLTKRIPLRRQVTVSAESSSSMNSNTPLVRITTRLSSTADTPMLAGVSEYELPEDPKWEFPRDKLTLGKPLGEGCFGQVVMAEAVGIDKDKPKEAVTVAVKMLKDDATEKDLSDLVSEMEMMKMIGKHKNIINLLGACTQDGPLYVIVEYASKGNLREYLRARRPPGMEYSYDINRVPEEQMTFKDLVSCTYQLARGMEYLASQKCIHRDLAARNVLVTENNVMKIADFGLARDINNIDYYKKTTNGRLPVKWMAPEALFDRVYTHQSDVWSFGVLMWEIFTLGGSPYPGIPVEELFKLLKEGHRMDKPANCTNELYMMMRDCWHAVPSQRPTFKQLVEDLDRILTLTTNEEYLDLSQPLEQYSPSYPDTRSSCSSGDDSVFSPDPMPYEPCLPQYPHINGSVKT
LYN B, sequence (P07948 1-491 isoform P07948-2): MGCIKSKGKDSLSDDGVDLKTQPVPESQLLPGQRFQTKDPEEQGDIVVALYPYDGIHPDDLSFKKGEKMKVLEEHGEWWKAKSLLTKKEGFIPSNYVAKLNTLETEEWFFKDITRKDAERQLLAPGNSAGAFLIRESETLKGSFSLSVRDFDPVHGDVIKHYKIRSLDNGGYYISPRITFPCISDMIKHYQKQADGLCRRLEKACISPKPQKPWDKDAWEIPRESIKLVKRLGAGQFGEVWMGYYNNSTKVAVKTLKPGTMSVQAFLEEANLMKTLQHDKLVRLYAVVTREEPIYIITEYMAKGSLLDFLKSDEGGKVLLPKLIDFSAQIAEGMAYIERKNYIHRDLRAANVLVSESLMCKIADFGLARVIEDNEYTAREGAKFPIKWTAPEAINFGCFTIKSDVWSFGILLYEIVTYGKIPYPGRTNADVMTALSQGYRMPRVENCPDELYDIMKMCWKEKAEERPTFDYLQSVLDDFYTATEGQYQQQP

Broadly, the inhibition is the share of the control response that was lost under treatment. Turning to `Cc1cc(F)ccc1-c1cccn2nc(NC3CCc4cnn(C)c4C3)nc12` (stereo not drawn) [Example 40, [8-(4-Fluoro-2-methyl-phenyl)-[1,2,4]triazolo[1,5-a]pyridine-2-yl]-(1-methyl-4,5,6,7-tetrahydro-1H-indazol-6-yl)-amine], the inhibition at 10 µM was below 40% on LYN B (setting [1]); 20% at LYN B (setting [2]); below 40% at RPS6KB1 (p70S6K) (setting [3]); 19% at RPS6KB1 (p70S6K) (setting [4]); below 40% at PDGFRA (PDGFR alpha) (setting [5]); 5% on PDGFRA (PDGFR alpha) (setting [6]). Besides, the inhibition at 10 µM is below 40% at FGFR2 (setting [7]) and 17% on FGFR2 (setting [8]).
Take `CCn1nc(Cl)c2c1CCC(Nc1nc3c(-c4ccc(F)cc4C)cccn3n1)C2` (stereo not drawn) [Example 48, (3-Chloro-1-ethyl-4,5,6,7-tetrahydro-1H-indazol-5-yl)-[8-(4-fluoro-2-methyl-phenyl)-[1,2,4]triazolo[1,5-a]pyridine-2-yl]-amine]: the inhibition at 10 µM is below 40% at LYN B (setting [1]); 22% on LYN B (setting [2]); below 40% on RPS6KB1 (p70S6K) (setting [3]); 15% at RPS6KB1 (p70S6K) (setting [4]); below 40% on PDGFRA (PDGFR alpha) (setting [5]); 19% on PDGFRA (PDGFR alpha) (setting [6]). Moreover, the inhibition at 10 µM on FGFR2 (setting [7]) was below 40%; on FGFR2 (setting [8]), 22%.
As to `CCn1ncc2c1C(C)CC(Nc1nc3c(-c4cc(F)c(F)c(F)c4)cccn3n1)C2` (stereo not drawn) [Example 49, (1-Ethyl-7-methyl-4,5,6,7-tetrahydro-1H-indazol-5-yl)-[8-(3,4,5-trifluoro-phenyl)-[1,2,4]triazolo[1,5-a]pyridine-2-yl]-amine], the inhibition at 10 µM on LYN B (setting [1]) is below 40%; on LYN B (setting [2]), 25%; on RPS6KB1 (p70S6K) (setting [3]), below 40%; at RPS6KB1 (p70S6K) (setting [4]), 33%; at PDGFRA (PDGFR alpha) (setting [5]) it was below 40%; on PDGFRA (PDGFR alpha) (setting [6]), 29%. Further, the values for the inhibition at 10 µM on FGFR2 (setting [7]) and at FGFR2 (setting [8]) were below 40% and 31%, respectively.
As to `Cc1cc(F)ccc1-c1cccn2nc(Nc3ccc4c(cnn4C)c3)nc12` [Example 9, [8-(4-fluoro-2-methyl-phenyl)-[1,2,4]triazolo[1,5-a]pyridine-2-yl]-(1-methyl-1H-indazol-5-yl)-amine], the inhibition at 10 µM at LYN B (setting [1]) is below 40%; on LYN B (setting [2]), 18%; at RPS6KB1 (p70S6K) (setting [3]), below 40%; on RPS6KB1 (p70S6K) (setting [4]) it was 3%; at PDGFRA (PDGFR alpha) (setting [5]) it was 40 to 80%; on PDGFRA (PDGFR alpha) (setting [6]) it was 59%. Besides, the figures for the inhibition at 10 µM on FGFR2 (setting [7]) and at FGFR2 (setting [8]) were 40 to 80% and 46%, respectively.
As for `Cc1cc(F)ccc1-c1cccn2nc(NC3CCc4c(cnn4CC(C)C)C3)nc12` (stereo not drawn) [Example 45, [8-(4-fluoro-2-methyl-phenyl)-[1,2,4]triazolo[1,5-a]pyridine-2-yl]-(1-isobutyl-4,5,6,7-tetrahydro-1H-indazol-5-yl)-amine], the inhibition at 10 µM is below 40% on LYN B (setting [1]); 15% on LYN B (setting [2]); below 40% on RPS6KB1 (p70S6K) (setting [3]); 7% at RPS6KB1 (p70S6K) (setting [4]); below 40% at PDGFRA (PDGFR alpha) (setting [5]); 30% on PDGFRA (PDGFR alpha) (setting [6]). In addition, the inhibition at 10 µM at FGFR2 (setting [7]) is below 40%; on FGFR2 (setting [8]), 16%.
With `CCCn1ncc2c1CCC(Nc1nc3c(-c4ccc(F)cc4C)cccn3n1)C2` (stereo not drawn) [Example 43, [8-(4-fluoro-2-methyl-phenyl)-[1,2,4]triazolo[1,5-a]pyridine-2-yl]-(1-propyl-4,5,6,7-tetrahydro-1H-indazol-5-yl)-amine], the inhibition at 10 µM was below 40% on LYN B (setting [1]); 22% at LYN B (setting [2]); below 40% at RPS6KB1 (p70S6K) (setting [3]); 3% at RPS6KB1 (p70S6K) (setting [4]); below 40% at PDGFRA (PDGFR alpha) (setting [5]); 16% on PDGFRA (PDGFR alpha) (setting [6]). The inhibition at 10 µM was below 40% at FGFR2 (setting [7]) and 14% at FGFR2 (setting [8]).
Turning to `CCn1ncc2c1CCC(Nc1nc3c(-c4cccnc4OC)cccn3n1)C2` (stereo not drawn) [Example 69, (1-Ethyl-4,5,6,7-tetrahydro-1H-indazol-5-yl)-[8-(2-methoxy-pyridin-3-yl)-[1,2,4]triazolo[1,5-a]pyridine-2-yl]-amine], the inhibition at 10 µM at LYN B (setting [1]) was below 40%; on LYN B (setting [2]) it was 15%; on RPS6KB1 (p70S6K) (setting [3]), below 40%; on RPS6KB1 (p70S6K) (setting [4]) it was 31%; on PDGFRA (PDGFR alpha) (setting [5]), below 40%; on PDGFRA (PDGFR alpha) (setting [6]), 17%. In addition, the inhibition at 10 µM was below 40% at FGFR2 (setting [7]) and 1% on FGFR2 (setting [8]).
`Cc1cc(F)ccc1-c1cccn2nc(NC3CCc4c(cnn4C)C3)nc12` (stereo not drawn) [Example 10, [8-(4-fluoro-2-methyl-phenyl)-[1,2,4]triazolo[1,5-a]pyridine-2-yl]-(1-methyl-4,5,6,7-tetrahydro-1H-indazol-5-yl)-amine]: the inhibition at 10 µM on LYN B (setting [1]) is below 40%; on LYN B (setting [2]) it was 17%; at RPS6KB1 (p70S6K) (setting [3]), below 40%; on RPS6KB1 (p70S6K) (setting [4]) it was 2%; on PDGFRA (PDGFR alpha) (setting [5]), below 40%; on PDGFRA (PDGFR alpha) (setting [6]), 8%. Further, the inhibition at 10 µM on FGFR2 (setting [7]) was below 40%; on FGFR2 (setting [8]), 14%.
As for `CC1(C)NC(=O)c2ccc(Nc3nc4c(-c5cccc(F)c5)cccn4n3)cc21` [Cpd. 302 in WO09155551, reference compound], the inhibition at 10 µM was above 80% on LYN B (setting [1]); 97% at LYN B (read-out: % Inhibition mean); above 80% at RPS6KB1 (p70S6K) (setting [3]); 86% on RPS6KB1 (p70S6K) (read-out: % Inhibition mean); above 80% at PDGFRA (PDGFR alpha) (setting [5]); 89% at PDGFRA (PDGFR alpha) (read-out: % Inhibition mean). The results for the inhibition at 10 µM at FGFR2 (setting [7]) and on FGFR2 (read-out: % Inhibition mean) were above 80% and 98%, respectively.
